Measured values reported in US9204654B2, “Synergistic combination of a zoxamide compound and zinc pyrithione for dry film protection” (Rohm and Haas Company, priority 2012, dated 2015).

Experiments:
Chlorella sp. ATCC 7516 = assay: Algal efficacy test of dry paint film (modified ASTM 5589, 6-well plates); type: cell-based; settings: 3 weeks; for Total conc: total biocide concentration in paint taken as minimum inhibitory concentration, pass level ≧75% inhibition, for zoxamide the maximum concentration tested, pass not reached
Protocol: (§1) Slurries containing 33% antimicrobial active ingredients (Zoxamide and ZnPT) were post added to a white, acrylic/silicone based outdoor paint free of biocides to give a total active ingredient concentration of 10000 and 1000 ppm respectively. These paints were then diluted with an antimicrobial free acrylic/silicone based paint and mixed to prepare targeted concentrations of antimicrobial compounds for the testing. The total biocides concentrations tested were 125, 250, 500, 1000, 2000 and 5000 ppm. After biocides addition or dilution, the paints were mixed 90 seconds with the horse power shaker (AXEL 75M3372/Agitateur SO-10MI) until uniformity was achieved. Paints containing different antimicrobial compounds at the same levels were mixed together in order to obtain the desired ratio of antimicrobial compounds. After one day, the paints were applied to Schleicher & Schuell filter paper at 280 μm wft and dried for 3 days at room temperature avoiding direct exposure to sunlight. Square discs (1.6 cm×1.6 cm) were cut out from each panel and were used as the substrate for algal efficacy tests. This sample size allowed for an agar border when the sample disc was placed into the well of the test plate.
(§2) Algal efficacy was tested according to modified ASTM 5589 which is a standard accelerated test method for determining resistance of various coatings (including paints) to algal defacement. To accommodate for high-throughput screening, this method was scaled down from petri dishes to 6-well plates. Bold Modified Basal Freshwater Nutrient Solution was used as growth medium. A single coated filter paper coupon was placed with a pair of sterile forceps at the center of the agar plug (on top) with the painted surface facing upwards. Algal inoculums were prepared by mixing equal concentrations (1×10^6 cfu/ml) and equal volumes of exponentially growing algae cultures.
(§3) Each well that contains a tested coupon was inoculated with 1750 μl of algal suspensions (1×10^6 cfu/ml) making sure that the whole surface (paint film as well as the agar surrounding it) was evenly covered. The plates were incubated at room temp (21° C.-25° C.) with cyclic exposure to light and dark phases, for a period of three weeks.
(§4) At the end of the three week incubation period, the samples were scored for percent inhibition regarding visible algal growth compared to the blank sample (0% inhibition).
(§5) The SI is calculated based on F. C.
(§6) SI value of <1 in the formula indicates a synergism of the blended biocides exists.
(§7) The minimal targeted inhibition was set at 75%, meaning a coupon with at least 75% algal growth inhibition was considered as a pass.

[1] = test system: Stichococcus bacillaris SAG 379-1a CCAP 379/1a; assay: as above; type: cell-based; settings: 3 weeks; for Total conc: total biocide concentration in paint taken as minimum inhibitory concentration, pass level ≧75% inhibition, for zoxamide the maximum concentration tested, pass not reached
Protocol: as §1, §2, §3, §4, §5, §6, §7

[2] = total conc 500 ppm in paint, visible algal growth vs blank

[O-][n+]1ccccc1[S][Zn][S]c1cccc[n+]1[O-] [ZnPT, bis(2-pyridylthio)zinc 1,1′-dioxide]
Total conc (Chlorella sp. ATCC 7516): 500 ppm | % inhibition (Chlorella sp. ATCC 7516; [2]): 90% | Total conc [1]: 500 ppm | % inhibition [1, 2]: 85%

CCC(C)(NC(=O)c1cc(Cl)c(C)c(Cl)c1)C(=O)CCl (centres unmarked) [Zoxamide, 3,5-Dichloro-N-(3-chloro-1-ethyl-1-methyl-2-oxopropyl)-4-methylbenzamide]
inhibition at 5000 ppm (Chlorella sp. ATCC 7516; 504 h, total conc 5000 ppm in paint, visible algal growth vs blank): 60% | Total conc (Chlorella sp. ATCC 7516): 5000 ppm | inhibition at 5000 ppm ([1]; Stichococcus bacillaris, 504 h, total conc 5000 ppm in paint, visible algal growth vs blank): 45% | Total conc [1]: 5000 ppm
